From ChEMBL document CHEMBL1140955, “Synthesis and in vitro biological evaluation of valine-containing prodrugs derived from clinically used HIV-protease inhibitors” (Eur J Med Chem, 2008) come the findings set out here.

The nature of series [1]: Cytotoxicity against human CEM-SS cells after 5 days by MTT assay. The class given is cell-based.
Series [2] in a line: Apparent permeability from apical to basolateral side of human Caco-2 cells at 9.4 uM in donor chamber after 3 hrs. The class given is ADME, cell-based. Particulars: read-out: permeability.
Series [3] is described as follows: Cytotoxicity against human MT4 cells after 4 days by MTT assay. The class given is cell-based. In general terms: Tetrazolium dyes change colour on reduction, which living cells bring about.
Series [4] relates to Caco-2. Kind of series: Permeability from basolateral to apical side of human Caco-2 cells assessed as ratio of prodrug concentration in receiver to prodrug concentration in donor at 9.4 uM in donor chamber after 3 hrs. The class given is ADME, cell-based. Particulars: caco-2, 3 h. On the technique in general: Caco-2 monolayers are a common model of the intestinal barrier.
Series [5] relates to Human immunodeficiency virus 1. Kind of series: Antiviral activity against HIV1 LAI infected in human CEM-SS cells assessed as reverse transcriptase activity after 5 days by MTT assay. The class given is functional, organism-based. Particulars: Human immunodeficiency virus 1, LAI, 120 h.
Series [6] has as its system Human immunodeficiency virus 1. Kind of series: Antiviral activity against HIV1 3B infected in human MT4 cells assessed as reverse transcriptase activity after 5 days by MTT assay. The note with it: Human immunodeficiency virus 1, 3B, MT4, 120 h.
Series [7] relates to Caco-2. Kind of series: Permeability from apical to basolateral side of human Caco-2 cells assessed as ratio of prodrug concentration in receiver to prodrug concentration in donor at 9.4 uM in donor chamber after 3 hrs. The class given is ADME, cell-based. Particulars: caco-2, 3 h.
The nature of series [8]: Apparent permeability from basolateral to apical side of human Caco-2 cells at 9.4 uM in donor chamber after 3 hrs. The class given is ADME, cell-based. The note with it: read-out: permeability.
Series [9] concerns Human immunodeficiency virus 1. Kind of series: Antiviral activity against HIV1 LAI infected in human CEM-SS cells assessed as ratio of IC50 for prodrug to IC50 for parent compound. The class given is functional.
A short description of series [10]: Apparent permeability from apical to basolateral side of human Caco-2 cells at 330 uM in donor chamber after 3 hrs. The class given is ADME, cell-based. The note with it: read-out: permeability.
For series [11], the system named is Human immunodeficiency virus 1. Kind of series: Antiviral activity against HIV1 3B infected in human MT4 cells assessed as ratio of IC50 for prodrug to IC50 for parent compound.
In series [12] the test system is Caco-2. Kind of series: Permeability from apical to basolateral side of human Caco-2 cells assessed as ratio of prodrug concentration in receiver to prodrug concentration in donor at 330 uM in donor chamber after 3 hrs. The note with it: caco-2, 3 h. The class given is ADME, cell-based.
Series [13] relates to Caco-2. Kind of series: Permeability from basolateral to apical side of human Caco-2 cells assessed as ratio of prodrug concentration in receiver to prodrug concentration in donor at 330 uM in donor chamber after 3 hrs. The class given is ADME, cell-based. Particulars: caco-2, 3 h.
The nature of series [14]: Chemical stability assessed as hydrolysis half life at pH 7.3. The class given is physicochemical. The note with it: buffer.
Series [15] in a line: Apparent permeability from basolateral to apical side of human Caco-2 cells at 330 uM in donor chamber after 3 hrs. Particulars: read-out: permeability. The class given is ADME, cell-based.
For series [16], the system named is Caco-2. Kind of series: Permeability from basolateral to apical side of human Caco-2 cells assessed as ratio of prodrug concentration in receiver to prodrug concentration in donor at 150 uM in donor chamber after 3 hrs. The note with it: caco-2, 3 h. The class given is ADME, cell-based.
The nature of series [17]: Apparent permeability from basolateral to apical side of human Caco-2 cells at 150 uM in donor chamber after 3 hrs. The note with it: read-out: permeability. The class given is ADME, cell-based.
Series [18] deals with Caco-2. Kind of series: Permeability from apical to basolateral side of human Caco-2 cells assessed as ratio of prodrug concentration in receiver to prodrug concentration in donor at 21 uM in donor chamber after 3 hrs. The class given is ADME, cell-based. Particulars: caco-2, 3 h.
Series [19] in a line: Apparent permeability from basolateral to apical side of human Caco-2 cells at 21 uM in donor chamber after 3 hrs. The class given is ADME, cell-based. Particulars: read-out: permeability.
Series [20] deals with Caco-2. Kind of series: Permeability from basolateral to apical side of human Caco-2 cells assessed as ratio of prodrug concentration in receiver to prodrug concentration in donor at 21 uM in donor chamber after 3 hrs. The class given is ADME, cell-based. Particulars: caco-2, 3 h.
Series [21] in a line: Apparent permeability from apical to basolateral side of human Caco-2 cells at 21 uM in donor chamber after 3 hrs. The class given is ADME, cell-based. The note with it: read-out: permeability.

pIC50: −log10 of the molar value. A value given as a limit tells only on which side of the number the result lay.

As to `CC(C)(C)NC(=O)[C@@H]1C[C@@H]2CCCC[C@@H]2CN1C[C@@H](O)[C@H](Cc1ccccc1)NC(=O)[C@H](CC(N)=O)NC(=O)c1ccc2ccccc2n1`, the CC50 (commonly the concentration at which the toxic effect on the cells reaches its halfway point) at 120 h in series [1] was greater than 10000 nM. For the same molecule, the Papp A→B at 3 h, 9.4 µM in series [2] stood at 3.98 ×10⁻⁶ cm/s. Also, the CC50 at 96 h in series [3] is greater than 10000 nM. In addition, the results for the Activity with Caco-2 [4] and with Caco-2 [7] were 10.3% and 2.6%, respectively. Also, the pIC50 (usually the IC50 on a negative log10 scale, so that one unit is a factor of ten) in series [5] is 8.05; in series [6], 7.74. Also, in series [8], the Papp B→A at 3 h, 9.4 µM was 1.1 ×10⁻⁶ cm/s.

The molecule `CC(C)[C@H](N)C(=O)O[C@@H]1Cc2ccccc2[C@@H]1NC(=O)[C@H](Cc1ccccc1)C[C@H](O)CN1CCN(Cc2cccnc2)C[C@H]1C(=O)NC(C)(C)C.O=C(O)C(F)(F)F` displayed a half-maximal cytotoxic concentration (CC50) at 120 h in series [1] greater than 100000 nM. For the same molecule, the “Ratio IC50” value was “>=1.7” in [9] and 7 in series [11]. Besides, the Papp A→B at 3 h, 330 µM in [10] was 6.44 ×10⁻⁶ cm/s. In [3], the CC50 at 96 h is greater than 100000 nM. Besides, the negative logarithm of the IC50 (pIC50) in series [5] was 7.77; in [6], 6.82. In addition, the Activity with Caco-2 [12] is on record as 15.6%; in the series with Caco-2 [13], 18.1%. Further, in [14], the half-life (commonly how long it takes for the measured level to halve) was 46 h. The Papp B→A at 3 h, 330 µM in series [15] is 7.37 ×10⁻⁶ cm/s.

`CC(C)[C@H](N)C(=O)NCCCCCC(=O)O[C@@H](C[C@@H](Cc1ccccc1)C(=O)N[C@H]1c2ccccc2C[C@H]1OC(=O)CCCCCNC(=O)[C@@H](N)C(C)C)CN1CCN(Cc2cccnc2)C[C@H]1C(=O)NC(C)(C)C.O=C(O)C(F)(F)F.O=C(O)C(F)(F)F` yielded a CC50 at 120 h in series [1] greater than 50000 nM. Besides, the “Ratio IC50” value in [9] is on record as “>=64”; in series [11], 134. Moreover, it took 45000 nM to reach half-maximal cytotoxicity in series [3] (CC50 at 96 h). Besides, the Activity in the series on Caco-2 [16] stood at 2.1%. Besides, the negative-log IC50 (pIC50) in series [5] is 6.19; in series [6] it was 5.53. For the same molecule, in series [17], the Papp B→A at 3 h, 150 µM was 6.26 ×10⁻⁶ cm/s. Also, the half-life in series [14] is 80 h.

With `CC(C)[C@H](N)C(=O)O[C@H](CN1C[C@H]2CCCC[C@H]2C[C@H]1C(=O)NC(C)(C)C)[C@H](Cc1ccccc1)NC(=O)[C@H](CC(N)=O)NC(=O)c1ccc2ccccc2n1.O=C(O)C(F)(F)F`, the Activity with Caco-2 [18] amounted to 6.1%; with Caco-2 [20] it was 9.6%. For the same molecule, in series [1], the CC50 at 120 h was greater than 10000 nM. For the same molecule, the “Ratio IC50” value in series [9] and in series [11] was 16 in each case. Besides, the 50% cytotoxic concentration (CC50) at 96 h in series [3] was greater than 10000 nM. Further, the results for the pIC50 in [5] and in series [6] were 6.85 and 6.54, respectively. Also, the Papp B→A at 3 h, 21 µM in [19] is 3.43 ×10⁻⁶ cm/s. Moreover, in [21], the Papp A→B at 3 h, 21 µM was determined as 2.32 ×10⁻⁶ cm/s. Besides, the half-life in series [14] is 40 h.

In series [1], `Cc1c(OC(=O)CCCCCNC(=O)[C@@H](N)C(C)C)cccc1C(=O)N[C@@H](CSc1ccccc1)[C@H](O)CN1C[C@H]2CCCC[C@H]2C[C@H]1C(=O)NC(C)(C)C.O=C(O)C(F)(F)F` returned a half-maximal cytotoxic concentration (CC50) at 120 h greater than 10000 nM. The “Ratio IC50” value in [9] was found to be 47. The molecule also showed a half-maximal cytotoxic concentration (CC50) at 96 h in series [3] of 10000 nM. Also, the negative-log IC50 (pIC50) in series [5] was 7.03; in series [6], 6.64. Further, the half-life in series [14] is 72 h.
